What was measured:
NLRP3 inflammasome = molecular target: T1, NLRP3 inflammasome (Homo sapiens, UniProt Q96P20); test: In vitro IL-1β production test (PMA-differentiated THP-1 cells, Nigericin stimulation, AlphaLISA); format: cell-based; details: inhibition of IL-1β production; THP-1 cells differentiated with 200 nM PMA; 0.015 mM Nigericin; 2 hours
T1 construct: endogenous in cells; host or cells: THP-1 (human monocyte-derived), PMA-differentiated, Nigericin-stimulated
How it was run: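 THP-1 cells were differentiated one day with 200 nM PMA, then given serum-free medium with 0.015 mM nigericin plus compound for 2 h. Supernatant IL-1β was measured by AlphaLISA, with nigericin alone as 0% and unstimulated as 100% inhibition. IC50 came from logistic sigmoid fitting.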

[1] = Pharmacokinetics test in mice (plasma and brain concentration, LC/MS/MS); format: in vivo; details: mouse; male BALB/c mice; oral 10 mg/kg; two hours after administration; concentration in brain homogenate standardized with concentration in plasma
Description: Two hours after oral administration of the test compound (10 mg/kg) to male BALB/c mice, blood was collected from the posterior vena cava under isoflurane anesthesia, and plasma was obtained by centrifugation. In addition, the brain was collected after euthanasia by exsanguination, and distilled water was added to the obtained brain sample in an amount four times the wet weight of the brain to prepare a 20% homogenate. The compound concentrations in the obtained plasma and brain homogenate were measured by LC/MS/MS. The central transfer parameter Kp, brain was calculated by standardizing the concentration in the brain homogenate with the concentration in plasma. In the table, Ex indicates the example number. […].

T1 sequence (Q96P20 whole entry): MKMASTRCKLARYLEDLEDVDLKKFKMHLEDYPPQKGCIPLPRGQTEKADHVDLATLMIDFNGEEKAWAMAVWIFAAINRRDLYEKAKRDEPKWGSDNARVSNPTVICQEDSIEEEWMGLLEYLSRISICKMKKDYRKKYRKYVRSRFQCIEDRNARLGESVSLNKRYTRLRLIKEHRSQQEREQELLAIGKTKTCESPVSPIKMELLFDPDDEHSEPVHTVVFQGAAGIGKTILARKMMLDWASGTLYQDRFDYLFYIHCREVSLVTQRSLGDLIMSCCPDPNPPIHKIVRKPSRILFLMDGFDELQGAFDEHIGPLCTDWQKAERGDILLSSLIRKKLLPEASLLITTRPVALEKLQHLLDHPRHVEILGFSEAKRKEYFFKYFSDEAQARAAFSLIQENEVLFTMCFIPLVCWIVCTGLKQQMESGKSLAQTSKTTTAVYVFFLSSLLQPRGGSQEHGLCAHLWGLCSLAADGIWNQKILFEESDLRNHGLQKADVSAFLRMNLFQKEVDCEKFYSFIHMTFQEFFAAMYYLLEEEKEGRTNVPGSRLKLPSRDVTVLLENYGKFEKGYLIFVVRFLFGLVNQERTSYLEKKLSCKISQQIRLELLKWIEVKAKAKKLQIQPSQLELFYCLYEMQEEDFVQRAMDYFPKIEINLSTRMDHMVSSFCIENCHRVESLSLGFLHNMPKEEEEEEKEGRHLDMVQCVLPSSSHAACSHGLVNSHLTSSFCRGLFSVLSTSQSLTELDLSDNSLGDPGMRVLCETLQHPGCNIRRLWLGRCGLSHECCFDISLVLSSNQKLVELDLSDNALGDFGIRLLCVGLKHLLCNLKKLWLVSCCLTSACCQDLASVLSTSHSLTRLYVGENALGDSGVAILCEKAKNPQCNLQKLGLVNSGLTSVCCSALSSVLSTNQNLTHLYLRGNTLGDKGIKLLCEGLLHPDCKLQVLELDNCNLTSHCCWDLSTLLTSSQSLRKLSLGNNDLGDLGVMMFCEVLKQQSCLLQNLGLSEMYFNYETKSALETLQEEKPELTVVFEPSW

With Cc1cc(C(F)(F)F)cc(O)c1-c1cc2ccn([C@H]3C[C@@](C)(O)C3)c2nn1 [Example 3, 2-{7-[(1s,3s)-3-hydroxy-3-methylcyclobutyl]-7H-pyrrolo[2,3-c]pyridazin-3-yl}-3-methyl-5-(trifluoromethyl)phenol] the IC50 (NLRP3 inflammasome) was 52.5 nM and the Kp at 2 h [1] was 1.1.

Cc1cc(C(F)(F)F)cc(O)c1-c1cc2c(C)cn([C@H]3C[C@@](C)(O)C3)c2nn1 [Example 4, 2-{7-[(1s,3s)-3-hydroxy-3-methylcyclobutyl]-5-methyl-7H-pyrrolo[2,3-c]pyridazin-3-yl}-3-methyl-5-(trifluoromethyl)phenol] gave an IC50 (NLRP3 inflammasome) of 19.8 nM and a Kp at 2 h [1] of 0.65.

Work on Cc1cc(C(F)(F)F)cc(O)c1-c1cc2c(F)cn([C@H]3C[C@@](C)(O)C3)c2nn1 [Example 5, 2-{5-fluoro-7-[(1s,3s)-3-hydroxy-3-methylcyclobutyl]-7H-pyrrolo[2,3-c]pyridazin-3-yl}-3-methyl-5-(trifluoromethyl)phenol] yielded an IC50 (NLRP3 inflammasome) of 31.3 nM and a Kp at 2 h [1] of 1.68.

With COc1cn([C@H]2C[C@@](C)(O)C2)c2nnc(-c3c(C)cc(C(F)(F)F)cc3O)cc12 [Example 10, 2-{7-[(1s,3s)-3-hydroxy-3-methylcyclobutyl]-5-methoxy-7H-pyrrolo[2,3-c]pyridazin-3-yl}-3-methyl-5-(trifluoromethyl)phenol] the IC50 (NLRP3 inflammasome) was 23.7 nM and the Kp at 2 h [1] was 0.7.

Work on Cc1cc(C(F)(F)F)cc(O)c1-c1cc2c(OC(F)F)cn([C@H]3C[C@@](C)(O)C3)c2nn1 [Example 21, 2-{5-(difluoromethoxy)-7-[(1s,3s)-3-hydroxy-3-methylcyclobutyl]-7H-pyrrolo[2,3-c]pyridazin-3-yl}-3-methyl-5-(trifluoromethyl)phenol] yielded an IC50 (NLRP3 inflammasome) of 19.8 nM and a Kp at 2 h [1] of 0.83.

Cc1cc(Cl)cc(O)c1-c1cc2c(F)cn([C@H]3C[C@@](C)(O)C3)c2nn1 [Example 27, 5-chloro-2-{5-fluoro-7-[(1s,3s)-3-hydroxy-3-methylcyclobutyl]-7H-pyrrolo[2,3-c]pyridazin-3-yl}-3-methylphenol] showed an IC50 (NLRP3 inflammasome) of 25.6 nM and a Kp at 2 h [1] of 0.92.

With Cc1cc(C(F)(F)F)cc(O)c1-c1cc2ccn(C[C@H](C)O)c2nn1 [Example 89, 2-{7-[(28)-2-hydroxypropyl]-7H-pyrrolo[2,3-c]pyridazin-3-yl}-3-methyl-5-(trifluoromethyl)phenol] the IC50 (NLRP3 inflammasome) was 138 nM.

Cc1cc(C)c(-c2cc3c(C)cn([C@H]4C[C@@](C)(O)C4)c3nn2)c(O)c1 [Example 90, 2-{7-[(1s,3s)-3-hydroxy-3-methylcyclobutyl]-5-methyl-7H-pyrrolo[2,3-c]pyridazin-3-yl}-3,5-dimethylphenol] gave an IC50 (NLRP3 inflammasome) of 56.5 nM.

Cc1cc(F)cc(O)c1-c1cc2c(C)cn([C@H]3C[C@@](C)(O)C3)c2nn1 [Example 91, 5-fluoro-2-{7-[(1s,3s)-3-hydroxy-3-methylcyclobutyl]-5-methyl-7H-pyrrolo[2,3-c]pyridazin-3-yl}-3-methylphenol] showed an IC50 (NLRP3 inflammasome) of 125 nM.

With Cc1cc(C(F)F)cc(O)c1-c1cc2c(C)cn([C@H]3C[C@@](C)(O)C3)c2nn1 [Example 92, 5-(difluoromethyl)-2-{7-[(1s,3s)-3-hydroxy-3-methylcyclobutyl]-5-methyl-7H-pyrrolo[2,3-c]pyridazin-3-yl}-3-methylphenol] the IC50 (NLRP3 inflammasome) was 59.2 nM.

For Cc1cc(C(F)(F)F)cc(O)c1-c1cc2c3c(n([C@H]4C[C@@](C)(O)C4)c2nn1)COC3 [Example 99, 2-{8-[(1s,3s)-3-hydroxy-3-methylcyclobutyl]-7,8-dihydro-5H-furo[3′,4′:4,5]pyrrolo[2,3-c]pyridazin-3-yl}-3-methyl-5-(trifluoromethyl)phenol], the IC50 (NLRP3 inflammasome) was 9.53 nM.

Reference: patent US20260226065A1, “SUBSTITUTED BENZENE COMPOUND” (DAIICHI SANKYO COMPANY, LIMITED, priority 2023, published 2026)
